Among the data in patent US12459953B2, “TREM2 modulators” (Muna Therapeutics ApS, priority 2024, dated 2025) are Emax and EC50 values, retold here.

SMILES strings stand for the structures. Where only a bound is given, the exact number is not on record here.

The target of this assay is T1, Human TREM2 (Homo sapiens, UniProt Q9NZC2).
T1 construct: expressed in transfected cells
Briefly: Human TREM2 activity by cellular phosphorylation of Syk (AlphaLISA SureFire Ultra p-SYK) in HEK293/DAP12+TREM2 stable cell line. Particulars: HEK293/DAP12+TREM2 cells; for Emax: maximal response relative to the maximal response of the reference agonist (8-(4-chloro-2-fluorophenyl)-2,3-dimethyl-6-[(2S)-2-(1-methyl-1H-pyrazol-4-yl)morpholin-4-yl]-3H,4H-[1,3]diazino[5,4-d]pyrimidin-4-one); for EC50: phospho-Syk AlphaScreen signal, 30 min incubation, concentration giving 50% of maximal response. The format is cell-based. The text has this: Human TREM2, in vitro Measurement of Triggering Receptor Expressed on Myeloid Cells 2 activity using cellular phosphorylation of Spleen Tyrosine Kinase (“Syk”) Assay
HEK-293 cells were co-transfected with separate plasmids encoding TREM2 and DAP12 to generate a stable cell line. After antibiotic selection, functional clone pool analysis and two successive limiting dilutions, the final clone
“HEK293/DAP12+TREM2” underwent a qPCR analysis and a pharmacological validation.
TREM2 signaling through DAP12 was monitored in the HEK293/DAP12+TREM2 stable cell line by measuring the phosphorylation levels of the Syk kinase using the commercially available AlphaLISA SureFire Ultra p-SYK (Tyr525/526) Assay Kit (PerkinElmer #ALSU-PSYK), based on the Perkin Elmer AlphaScreen/AlphaLISA technology.
Compounds are transferred to the test plate and tested in full dose response, 8 concentrations in quadruplicate data points. Compound serial dilutions were performed at Cybi-Felix instrument in 100% DMSO and the dose response curves were assembled in automated fashion in 384MPT at Hamilton STARIet instrument. All the stock solutions were prepared at 20 mM in 100% DMSO. For compounds testing, the starting concentration was 100 μM, dilution steps 1:6. A different concentration's range was adapted for compound's activity based on the preliminary results. Finally, a 384MPT reformatted for all compounds at 8 concentrations, quadruplicates, was used as “mother to child” process with a CyBi®-Well dispenser in which 1 μL of each compound was moved into a destination plate pre-filled with 65.6 μL of EMEM cell culture medium (BIOWHITTAKER_cat.BE12-125F), thus obtaining 3× concentrated compounds working solution. In columns 1-2 and 23-24 the control wells were added. In particular, dose response curves of a reference control agonist were included in column 1 and 24 as reference control agonist (Reference control agonists used include Human TREM2 polyclonal Antibody AF1828: R&D Systems; Human TREM2 monoclonal Antibody MAB1828: R&D Systems). The dose response curves were tested starting at 30 μM, dilution step 1:6. Both “source” compound plate and “destination” compound plate were barcoded and a relationship between the two plates was thus generated.
HEK293/DAP12+TREM2 cells were cultured in EMEM medium supplemented with IX Penicillin/Streptomycin (BIOWHITTAKER_cat.DE17-602E), ULTRAGLUTAMINE I 200 mM, 10% Fetal Bovine Serum plus antibiotics referred to as “HEK293 Culture Medium”. The day before the experiment, cells were detached by gentle wash with DPBS, followed by 5 min incubation at 37° C. with Trypsin solution. Cells were then diluted in HEK293 Culture Medium without antibiotics, counted and seeded into 384-well poly-D-Lysine coated microplates black/clear bottom (GREINER 781946) at a density of 10,000 cells/well in 25 μL/well by the use of a MATRIX WellMate dispenser. Plates were placed into a humidified cell culture incubator at 37° C. with 5% CO2 until the experimental day. 20-24 hours after seeding mature medium was removed and replaced with 10 μL/well of EMEM cell medium supplemented with 0.1% Pluronic F-68 non-ionic surfactant (Thermofisher, 24040032), referred to as “Assay Buffer”, using the CyBi®-Well instrument. Then 5 μL/well of Assay Buffer containing 3× concentrated test compounds or the reference control agonist (in 0.5% final DMSO concentration) were added to the cells with the CyBi®-Well instrument. Cell plates were incubated for 30 min into a humidified cell culture incubator at 37° C. with 5% CO2,then the medium was removed by manually discard. 20 μL/well of lysis buffer were dispensed using the CyBi®-Well instrument and plates were incubated for 10 min at room temperature on a plate shaker (350 rpm). Then, 10 μL/well of lysate were transferred to the Alpha plates. The CyBi®-Well instrument was used to dispense 5 μL/well of AlphaLISA Acceptor Bead Solution in IX Immunoassay buffer (Perkin Elmer ALOOOF). […]

T1 sequence (Q9NZC2 19-230): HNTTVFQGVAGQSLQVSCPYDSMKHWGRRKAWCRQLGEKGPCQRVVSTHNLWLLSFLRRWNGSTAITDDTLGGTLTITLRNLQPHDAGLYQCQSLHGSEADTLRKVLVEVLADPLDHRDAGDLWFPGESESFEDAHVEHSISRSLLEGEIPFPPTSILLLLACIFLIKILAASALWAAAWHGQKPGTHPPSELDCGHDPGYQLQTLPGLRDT
T1 sequence (O43914 22-113 partner): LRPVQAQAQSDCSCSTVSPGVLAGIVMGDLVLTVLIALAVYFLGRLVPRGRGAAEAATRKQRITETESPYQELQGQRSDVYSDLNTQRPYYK

Take `C[C@@H]1CN(c2nc(-c3ccc(F)cc3F)c3ncn(C)c(=O)c3n2)C[C@H](c2cnn(C3CC3)c2)O1`: the Emax – broadly, the size of the effect at its maximum, as opposed to the concentration needed – was 75 to 110% and the EC50 (in general, the concentration needed to bring the measured effect to its halfway point) lay in the range of 10 to 100 nM.

For `Cc1nc2c(-c3ccc(F)cc3F)nc(N3C[C@@H](C)O[C@@H](c4cnn(C5CC5)c4)C3)nc2c(=O)n1C`, the Emax is 75 to 110% and the EC50 lay within 1 to 10 nM.

`COc1ccc(-c2nc(N3C[C@@H](C)O[C@@H](c4cnn(C5CC5)c4)C3)nc3c(=O)n(C)c(C(F)(F)F)nc23)c(F)c1` (single isomer, unassigned) [Example 4] gave an Emax of 75 to 110% and an EC50 below 1 nM.

Consider `C[C@@H]1CN(c2nc(-c3ccc(C#N)cc3F)c3nc(C(F)(F)F)n(C)c(=O)c3n2)C[C@H](c2cnn(C3CC3)c2)O1` (single isomer, unassigned) [Example 5A], for which the Emax is above 110% and the EC50 was below 1 nM.

The compound `C[C@H]1CN(c2nc(-c3ccc(C#N)cc3F)c3nc(C(F)(F)F)n(C)c(=O)c3n2)C[C@@H](c2cnn(C3CC3)c2)O1` (single isomer, unassigned) [Example 5B] came in with an Emax above 110% and an EC50 of 1 to 10 nM.

As to `C[C@@H]1CN(c2nc(-c3ccc(C#N)cc3F)c3nc(C(F)(F)F)n(C)c(=O)c3n2)C[C@H](c2cnn(C)c2)O1` (single isomer, unassigned) [Example 6A], the Emax fell in the range of 75 to 110% and the EC50 lay within 1 to 10 nM.

As to `C[C@H]1CN(c2nc(-c3ccc(C#N)cc3F)c3nc(C(F)(F)F)n(C)c(=O)c3n2)C[C@@H](c2cnn(C)c2)O1` (single isomer, unassigned) [Example 6B], the Emax lay in the range of 75 to 110% and the EC50 lay within 1 to 10 nM.

For the compound `Cn1cc([C@H]2CN(c3nc(-c4ccc(C#N)cc4F)c4nc(C(F)(F)F)n(C)c(=O)c4n3)CC(F)(F)O2)cn1` (single isomer, unassigned) [Example 7A], the Emax was above 110% and the EC50 was below 1 nM.

`Cn1cc([C@@H]2CN(c3nc(-c4ccc(C#N)cc4F)c4nc(C(F)(F)F)n(C)c(=O)c4n3)CC(F)(F)O2)cn1` (single isomer, unassigned) [Example 7B] had an Emax of 75 to 110% and an EC50 of 1 to 10 nM.

Compound `COc1cc([C@@H]2CN(c3nc(-c4ccc(C#N)cc4F)c4nc(C(F)(F)F)n(C)c(=O)c4n3)CCO2)ccn1` (single isomer, unassigned) [Example 8A] registered an Emax of 75 to 110% and an EC50 of 10 to 100 nM.

`COc1cc([C@H]2CN(c3nc(-c4ccc(C#N)cc4F)c4nc(C(F)(F)F)n(C)c(=O)c4n3)CCO2)ccn1` (single isomer, unassigned) [Example 8B] came in with an Emax of 75 to 110% and an EC50 below 1 nM.

Turning to `COc1cc([C@@H]2CN(c3nc(-c4ccc(C#N)cc4F)c4nc(C(F)(F)F)n(C)c(=O)c4n3)C[C@H](C)O2)ccn1` (single isomer, unassigned) [Example 9A], the Emax was in the range of 75 to 110% and the EC50 is below 1 nM.

For the compound `COc1cc([C@H]2CN(c3nc(-c4ccc(C#N)cc4F)c4nc(C(F)(F)F)n(C)c(=O)c4n3)C[C@@H](C)O2)ccn1` (single isomer, unassigned) [Example 9B], the Emax was in the range of 75 to 110% and the EC50 was below 1 nM.

`C[C@@H]1CN(c2nc(-c3ccc(C#N)cc3)c3nc(C(F)(F)F)n(C)c(=O)c3n2)C[C@H](c2cnn(C)c2)O1` (single isomer, unassigned) [Example 10A] showed an Emax of 75 to 110% and an EC50 below 1 nM.

Compound `C[C@H]1CN(c2nc(-c3ccc(C#N)cc3)c3nc(C(F)(F)F)n(C)c(=O)c3n2)C[C@@H](c2cnn(C)c2)O1` (single isomer, unassigned) [Example 10B] displayed an Emax of 75 to 110% and a half-maximal effective concentration (EC50) of 1 to 10 nM.

In turn, `C[C@@H]1CN(c2nc(-c3ccc(C#N)cc3)c3nc(C(F)(F)F)n(C)c(=O)c3n2)C[C@H](c2cnn(C3CC3)c2)O1` (single isomer, unassigned) [Example 11A] showed an Emax of 75 to 110% and an EC50 below 1 nM.

Take `C[C@H]1CN(c2nc(-c3ccc(C#N)cc3)c3nc(C(F)(F)F)n(C)c(=O)c3n2)C[C@@H](c2cnn(C3CC3)c2)O1` (single isomer, unassigned) [Example 11B]: the Emax was 75 to 110% and the half-maximal effective concentration (EC50) lay in the range of 1 to 10 nM.

As for `COc1cc([C@H]2CN(c3nc(-c4ccc(F)cc4F)c4nc(C(F)(F)F)n(C)c(=O)c4n3)CCO2)ccn1` (single isomer, unassigned) [Example 12A], the Emax lay within 75 to 110% and the EC50 was below 1 nM.

`COc1cc([C@@H]2CN(c3nc(-c4ccc(F)cc4F)c4nc(C(F)(F)F)n(C)c(=O)c4n3)CCO2)ccn1` (single isomer, unassigned) [Example 12B] showed an Emax of 75 to 110% and an EC50 of 10 to 100 nM.

Consider `C[C@@H]1CN(c2cc3c(=O)n(C)c(C(F)(F)F)nc3c(-c3ccc(C#N)cc3F)n2)C[C@H](c2cnn(C3CC3)c2)O1` (single isomer, unassigned) [Example 13A], for which the Emax fell in the range of 75 to 110% and the EC50 was below 1 nM.

For the compound `C[C@H]1CN(c2cc3c(=O)n(C)c(C(F)(F)F)nc3c(-c3ccc(C#N)cc3F)n2)C[C@@H](c2cnn(C3CC3)c2)O1` (single isomer, unassigned) [Example 13B], the Emax lay in the range of 75 to 110% and the EC50 fell in the range of 1 to 10 nM.

The compound `Cn1cc([C@H]2CN(c3cc4c(=O)n(C)c(C(F)(F)F)nc4c(-c4ccc(C#N)cc4F)n3)CC(F)(F)O2)cn1` (single isomer, unassigned) [Example 14A] came in with an Emax of 75 to 110% and an EC50 of 1 to 10 nM.

In turn, `Cn1cc([C@@H]2CN(c3cc4c(=O)n(C)c(C(F)(F)F)nc4c(-c4ccc(C#N)cc4F)n3)CC(F)(F)O2)cn1` (single isomer, unassigned) [Example 14B] had an Emax of 75 to 110% and an EC50 of 10 to 100 nM.

In turn, `Cn1cc([C@H]2CN(c3nc(-c4ccc(C#N)cc4F)c4nc(C(F)(F)F)n(C)c(=O)c4n3)CCO2)cn1` [Example 1, (S)-3-fluoro-4-(7-methyl-2-(2-(1-methyl-1H-pyrazol-4-yl)morpholino)-8-oxo-6-(trifluoromethyl)-7,8-dihydropyrimido[5,4-d]pyrimidin-4-yl)benzonitrile] showed an Emax of 75 to 110% and a concentration giving a half-maximal response (EC50) below 1 nM.

The compound `COc1ccc(-c2nc(N3CCO[C@@H](c4cnn(C)c4)C3)nc3c(=O)n(C)c(C(F)(F)F)nc23)c(F)c1` [Example 2, (S)-8-(2-fluoro-4-methoxyphenyl)-3-methyl-6-(2-(1-methyl-1H-pyrazol-4-yl)morpholino)-2-(trifluoromethyl)pyrimido[5,4-d]pyrimidin-4(3H)-one] registered an Emax of 75 to 110% and an EC50 of 1 to 10 nM.

`Cn1cc([C@H]2CN(c3nc(-c4ccc(C#N)cc4)c4nc(C(F)(F)F)n(C)c(=O)c4n3)CCO2)cn1` [Example 3, (S)-4-(7-methyl-2-(2-(1-methyl-1H-pyrazol-4-yl)morpholino)-8-oxo-6-(trifluoromethyl)-7,8-dihydropyrimido[5,4-d]pyrimidin-4-yl)benzonitrile] came in with an Emax below 75% and an EC50 of 1 to 10 nM.
